This is an account of results in patent publication US9850272B2, “Therapeutically active estratrienthiazole derivatives as inhibitors of 17.beta-hydroxy-steroid dehydrogenase, type 1” (FORENDO PHARMA LTD, priority 2013, dated 2017).

SMILES strings stand for the structures.

Data set [1] has as its target T1, Recombinant Human 17β-HSD1 (Homo sapiens, UniProt P14061).
T1 construct: made in house; host or cells: Sd9 (Sf9) insect cells, baculovirus (Bac to Bac Expression System)
T1 sequence (P14061 1-328): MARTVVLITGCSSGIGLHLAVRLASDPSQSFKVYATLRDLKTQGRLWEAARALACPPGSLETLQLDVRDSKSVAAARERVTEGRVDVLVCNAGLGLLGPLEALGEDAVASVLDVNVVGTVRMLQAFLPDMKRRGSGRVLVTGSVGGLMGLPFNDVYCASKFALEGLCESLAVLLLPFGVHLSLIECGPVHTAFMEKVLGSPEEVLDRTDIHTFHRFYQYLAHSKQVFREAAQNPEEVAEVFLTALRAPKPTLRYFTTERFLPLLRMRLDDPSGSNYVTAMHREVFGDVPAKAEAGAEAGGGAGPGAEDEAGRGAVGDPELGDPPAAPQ
The experiment in a line: Inhibition of recombinant human 17β-HSD1 (conversion of 3H-estrone to estradiol, HPLC). The format is biochemical. The following applies: inhibitor at 1 μM; 30 nM estrone, 1 mM NADPH, 30 min at RT; read-out: 17β-HDS1 Inhibition % at 1 μM. Here is the method: 17β-HSD1 Production and Isolation:
Recombinant baculovirus was generated by the “Bac to Bac Expression System” (Invitrogen). Recombinant bacmid was transfected to Sd9 insect cells using “Cellfectin Reagent” (Invitrogen). 60 h later cells were harvested; the microsomal fraction was isolated as described by Puranen, T. J., Poutanen, M. H., Peltoketo, H. E., Vihko, P. T. and Vihko, R. K. (1994) Site-directed mutagenesis of the putative active site of human 17 β-hydroxysteroid dehydrogenase type 1. Biochem. J. 304: 289-293. Aliquots were stored frozen until determination of enzymatic activity.
Assay—Inhibition of Recombinant Human 17β-HSD1:
Recombinant protein (1 μg/ml) was incubated in 20 mM KH2PO4 pH 7.4 with 30 nM estrone (including 800.000 cpm/ml of ^3H-estrone) and 1 mM NADPH for 30 min at RT, in the presence of the potential inhibitor at concentrations 1 μM or 0.1 μM. Inhibitor stock solutions were prepared in DMSO. Final concentration of DMSO was adjusted to 1% in all samples. The enzyme reaction was stopped by addition of 10% trichloroacetic acid (final concentration). Samples were centrifuged in a microtiter plate at 4000 rpm for 10 min. Supernatants were applied to reverse phase HPLC on a Waters Symmetry C18 column, equipped with a Waters Sentry Guard column. Isocratic HPLC runs were performed at RT at a flow rate of 1 ml/min in acetonitrile:water 48:52 as running solvent. Radioactivity was monitored in the eluate by a Packard Flow Scintillation Analyzer. Total radioactivity for estrone and estradiol were determined in each sample and percent conversion of estrone to estradiol was calculated according to the following formula:
(§1) Percent inhibition was calculated flowingly: % inhibition=100−% conversion

The target in data set [2] is T2, Recombinant Human 17β-HSD2 (Homo sapiens, UniProt P37059).
T2 construct: made in house; host or cells: Sd9 (Sf9) insect cells, baculovirus (Bac to Bac Expression System)
T2 sequence (P37059 1-387): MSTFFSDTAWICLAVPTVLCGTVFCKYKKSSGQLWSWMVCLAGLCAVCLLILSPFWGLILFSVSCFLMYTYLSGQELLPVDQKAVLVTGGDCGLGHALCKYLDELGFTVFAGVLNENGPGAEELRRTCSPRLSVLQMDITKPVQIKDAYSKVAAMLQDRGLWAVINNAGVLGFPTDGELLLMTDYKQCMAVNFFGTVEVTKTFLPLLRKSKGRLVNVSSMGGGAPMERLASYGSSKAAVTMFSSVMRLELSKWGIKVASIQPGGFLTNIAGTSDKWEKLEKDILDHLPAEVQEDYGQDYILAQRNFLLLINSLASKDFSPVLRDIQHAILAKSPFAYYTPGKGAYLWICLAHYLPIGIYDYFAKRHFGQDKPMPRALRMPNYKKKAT
The experiment in a line: Inhibition of recombinant human 17β-HSD2 (conversion of 3H-estradiol to estrone, HPLC). It is filed as biochemical. The following applies: inhibitor at 1 μM; 50 nM estradiol, 1 mM NADH, 30 min at RT; read-out: 17β-HSD2 Inhibition % at 1 μM. Here is the method:
17β-HSD2 Production and Isolation:
Similarly to 17β-HSD1 the Recombinant baculovirus was generated by the “Bac to Bac Expression System” (Invitrogen). Recombinant bacmid was transfected to Sd9 insect cells using “Cellfectin Reagent” (Invitrogen). 60 h later cells were harvested and supernatant were fractionated by the following protocol: • cells were dissolved into 40 ml of A-buffer (40 mM TRIS, pH8.0, 20% glycerol, 20 μM NAD, 0.4 mM PMSF, 150 mM NaCl, 0.5% dodecyl-β-maltoside+protease inhibitor cocktail) • cells were sonicated • lysate was incubated on ice for 15 min • lysate was centrifuged 5000 rpm 15 min, +4° C. • centrifugation of the supernatant 180.000 g 30 min, +4° C. • pellet was dissolved into 8 ml of A-buffer • not resuspended material was removed by centrifugation 5000 rpm 15 min, +4° C. • the clear supernatant was divided into 100 μl aliquots and were stored frozen until determination of enzymatic activity.
The amount of 17β-HSD2 was analysed by immunoblotting and total protein concentration of each extract batch was determined.
Assay—Inhibition of Recombinant Human 17β-HSD2:
Recombinant protein (4 μg/ml) was incubated in 20 mM KH2PO4 pH 8.5 with 50 nM estradiol (including 800.000 cpm/ml of ^3H-estradiol) and 1 mM NADH for 30 min at RT, in the presence of the potential inhibitor at concentrations 1 μM or 0.1 μM. Inhibitor stock solutions were prepared in DMSO. Final concentration of DMSO was adjusted to 1% in all samples. The enzyme reaction was stopped by addition of 10% trichloroacetic acid (final concentration). Samples were centrifuged in a microtiter plate at 4000 rpm for 10 min. Supernatants were applied to reverse phase HPLC on a Waters Symmetry C18 column, equipped with a Waters Sentry Guard column. Isocratic HPLC runs were performed at RT at a flow rate of 1 ml/min in acetonitrile:water 48:52 as running solvent. Radioactivity was monitored in the eluate by a Packard Flow Scintillation Analyzer. Total radioactivity for estrone and estradiol were determined in each sample and percent conversion of estradiol to estrone was calculated according to the following formula:
as §1

Data set [3] is described as follows: Metabolic stability assay, human liver microsome and homogenate incubations. The format is in vitro ADME. The following applies: human liver homogenate or microsomes. As for the experimental part:
Metabolic Stability Assay The in vitro metabolic stability of the compounds of the invention was determined for exemplified compounds using human liver microsome and homogenate incubations. The incubation time points used with or without appropriate cofactors were 0 min and 60 min. Samples were collected at both time points and substrates were detected using LC/PDA/TOF-MS. In vitro metabolic stability (% remaining after 60 min in human liver homogenate or microsomes) of the compounds were calculated and the results are summarized in Table 3.
For orientation: Microsomes from liver hold many membrane-bound enzymes, among them those of drug oxidation.

In general, inhibition refers to the relative decrease from the control value, in per cent. Consider `CO[C@H]1C[C@@H](CCC(=O)Nc2ncc(C)s2)C2C3CCc4cc(O)ccc4C3CC[C@@]21C` (stereo partly drawn) [Compound 17, 3-((13S,15R,17S)-3-hydroxy-17-methoxy-13-methyl-7,8,9,11,12,13,14,15,16,17-decahydro-6H-cyclopenta[a]phenanthren-15-yl)-N-(5-methylthiazol-2-yl)propanamide], for which the figures for the inhibition at 1 µM in data set [1] and in data set [2] were 79% and 4%, respectively. The “In vitro metabolic stability, % remaining after 60 min” value in data set [3] was 37%.
With `CC(=O)O[C@H]1C[C@@H](CCC(=O)Nc2ncc(C)s2)C2C3CCc4cc(OC(=O)c5ccccc5)ccc4C3CC[C@@]21C` (stereo partly drawn) [Compound 55, Benzoic acid (13S,15R,17S)-17-acetoxy-13-methyl-15-[2-(5-methylthiazol-2-ylcarbamoyl)-ethyl]-17-oxo-7,8,9,11,12,13,14,15,16,17-decahydro-6H-cyclopenta[a]phenanthren-3-yl ester], the “In vitro metabolic stability, % remaining after 60 min” value in data set [3] was found to be 47%.
Turning to `CCCC[C@]1(O)C[C@@H](CCC(=O)Nc2ncc(C)s2)C2C3CCc4cc(O)ccc4C3CC[C@@]21C` (stereo partly drawn) [Compound 19, 3-((13S,15R,17S)-17-butyl-3,17-dihydroxy-13-methyl-7,8,9,11,12,13,14,15,16,17-decahydro-6H-cyclopenta[a]phenanthren-15-yl)-N-(5-methylthiazol-2-yl)propanamide], the figures for the inhibition at 1 µM in data set [1] and in data set [2] were 93% and 6%, respectively. In data set [3], the “In vitro metabolic stability, % remaining after 60 min” value is on record as 90%.
